Test results published in PMC6789456, “Ursolic Acid Derivatives as Potential Agents Against Acanthamoeba Spp” (Pathogens, 2019).

Legend:
[1] = Cytotoxicity, Alamar Blue assay; assay type: cell-based; conditions: mouse, J774.A1 macrophage cell line (ATCC TIB-67), J774.A1, 24 h, mean ± SD, >100 if inhibition did not reach 50% at the highest concentration, read-out: Murine Macrophages CC50
Experimental: Cytotoxicity of the selected compounds was evaluated after 24 h incubation of murine macrophage J774.A1 cell line (ATCC # TIB-67) with different concentrations of the tested compounds at 37 °C in a 5% CO2 humidified incubator. The viability of the macrophages was determined with the Alamar Blue assay as previously described.

[2] = test system: Acanthamoeba castellanii Neff; test: In vitro effect against the trophozoite stage, Alamar Blue assay; assay type: cell-based; conditions: for IC50: trophozoites, Alamar blue, 96 h, mean ± SD; for IC90: concentration used in the double-stain assay, A. castellanii Neff trophozoites
Experimental: (§1) The anti-Acanthamoeba activity of molecules was evaluated against the Acanthamoeba castellanii Neff (ATCC 30010) type strain from the American Type Culture Collection and Acanthamoeba griffini obtained in previous studies. Those strains were grown axenically in Peptone Yeast Glucose (PYG) medium (0.75% (w/v) proteose peptone, 0.75% (w/v) yeast extract, and 1.5% (w/v) glucose) containing 40 μg of gentamicin ml−1 (Biochrom AG, Cultek, Granollers, Barcelona, Spain).
(§2) The anti-Acanthamoeba activities of the compounds were determined by the Alamar Blue assay as previously described. Briefly, Acanthamoeba strains were seeded in duplicate on a 96-well microtiter plate with 50 μL from a stock solution of 10^4 cells mL^−1. Amoebae were allowed to adhere for 15 min and 50 μL of serial dilution series of the eye drop solution was added. Finally, the Alamar Blue assay reagent (Bioresource, Europe, Nivelles, Belgium) was added into each well at an amount equal to 10% of the medium volume. The plates were then incubated for 96 h at 28 °C with a slight agitation and the emitted fluorescence was measured with an Enspire microplate reader (PerkinElmer, Massachusetts, USA) at 570/585 nm.

[3] = test system: Acanthamoeba griffini; test: as above; assay type: cell-based; conditions: 96 h, trophozoites, mean ± SD
Experimental: as §1, §2

[4] = test system: Acanthamoeba castellanii Neff; test: Mitochondrial membrane potential, JC-1; assay type: cell-based; conditions: treated with IC90, 24 h; for decrease of mitochondrial membrane potential (ΔΨm): ratio of fluorescence 590/530 nm
Experimental: The collapse of an electrochemical gradient across the mitochondrial membrane during apoptosis was detected with the JC-1 mitochondrial membrane potential detection kit (Cell Technology). After being treated with IC90 of the test solution for 24 h, the cells were centrifuged (1000 r.p.m. × 10 min) and resuspended in JC-1 buffer. After that, 100 µL of each treated culture was added to a black 96 well plate (PerkinElmer) then 10 µL of JC-1 was added and incubated at 26 °C for 30 min. Analysis for the mean green and red fluorescence intensity was done using an Enspire microplate reader (PerkinElmer, Waltham, MA, USA) after 30 minutes. As well as images were taken on an EVOS fluorescence microscope from the Advanced Microscopy Group (AMG). The staining pattern allows the identification of two groups in a cellular population: Live cells will show only red fluorescence; and cells with low mitochondrial potential, (undergoing PCD) will show a higher level of green and red fluorescence.

[5] = test system: Acanthamoeba castellanii Neff trophozoite; test: Double-stain assay (Hoechst 33342/PI) for programmed cell death; assay type: cell-based; conditions: treated with IC90, 24 h; for Propidium Iodide (PI) stain: data not shown
Experimental: A double-stain apoptosis detection kit (Hoechst 33342/PI; GenScript, Piscataway, NJ, USA) and an inverted confocal microscope (Leica DMI 4000B) were used. The experiment was carried out by following the manufacturer’s recommendations, and 10^5 cells/well were incubated in a 24-well plate for 24 h with the previously calculated IC90. The double-staining pattern allows the identification of three groups in a cellular population: Live cells will show only a low level of fluorescence, cells undergoing PCD will show a higher level of blue fluorescence (as chromatin condenses), and dead cells will show low-blue and high-red fluorescence (as the propidium iodide stain enters the nucleus).

[6] = test system: Acanthamoeba Neff; test: Intracellular ROS production, CellROX Deep Red staining; assay type: cell-based, Acanthamoeba castellanii; conditions: treated with IC90, 24 h, vs negative control
Experimental: The generation of intracellular ROS was detected using the CellROX® Deep Red fluorescent probe (Invitrogen). The cells were treated with IC90 of both 5 and 7 for 24 h and exposed to CellROX® Deep Red (5 μM, 30 min) at 26 °C in the dark.

[7] = test system: Acanthamoeba spp. cysts; test: In vitro effect against the cyst stage, Alamar Blue assay; assay type: cell-based; conditions: both strains, viability of cysts
Experimental: The cysticidal activity was determined by the Alamar Blue assay at 144 h and confirmed visually by inverted microscopy. Cysts of both strains were prepared as described by Lorenzo-Morales et al. (2008). Briefly, trophozoite were transferred from PYG medium based cultures (trophozoite medium) to Neff´s encystment medium (NEM; 0.1 M KCl, 8 mM MgSO4·7H2O, 0.4 mM CaCl2·2H2O, 1 mM NaHCO3, and 20 mM ammediol (2-amino-2-methyl-1,3-propanediol; Sigma Aldrich Chemistry Ltd., Madrid, Spain), pH 8.8, at 25 °C) and were cultured in this medium with gentle shaking for a week in order to obtain mature cysts. After that, mature cysts were harvested and washed twice using the PYG medium.
A serial dilution of the tested molecules was made in PYG. The in vitro susceptibility assay was performed in sterile 96-well microtiter plates (Corning™). To these wells the drug concentration to be tested and 5 × 10^4 mature cysts of Acanthamoeba/ml were added. The final volume was 100 μL in each well. After 7 days of incubation with the drugs, the plate was centrifuged at 3000 rpm for 10 min. […] Finally, 10 μL of the Alamar Blue assay reagent (Biosource, Europe, Nivelles, Belgium) was placed into each well, and the plates were then incubated for 144 h at 28 °C with slight agitation and the emitted fluorescence was periodically examined with an Enspire microplate reader (PerkinElmer, Waltham, MA, USA) at 570/585 nm.

[8] = Solubility (comparison in words); assay type: physicochemical; conditions: compared to the origin compound 1 (ursolic acid)
[9] = test system: murine macrophage J774.A1 cell line; test: Cytotoxicity, Alamar Blue assay; assay type: cell-based; conditions: 50 µM, J774A.1, inverted microscopy, compared to 1

SMILES	CC50 at 24 h [1]	IC50 [2]	IC50 ([3]; Acanthamoeba griffini)	IC50 [3]	mitochondrial membrane potential, JC-1 imaging [4]	decrease of mitochondrial membrane potential (ΔΨm) [4]	chromatin condensation (Hoechst 33342 stain) [5]	Propidium Iodide (PI) stain [5]	reactive oxygen species (ROS) levels [6]	cysticidal effect [7]	solubility [8]	IC90 [2]	effect on morphology of murine macrophages [9]
COC(=O)[C@]12CC[C@@H](C)[C@H](C)C1C1=CCC3[C@@]4(C)CC[C@H](O)C(C)(C)C4CC[C@@]3(C)[C@]1(C)CC2 (some centres unmarked) [Compound 4]	26.3 ± 1.7 µM	21.9 ± 0.9 µM	8.7 ± 0.4 µM										
CC(=O)O[C@H]1CC[C@@]2(C)C(CC[C@]3(C)C2CC=C2C4[C@@H](C)[C@H](C)CC[C@]4(C(=O)O)CC[C@]23C)C1(C)C (some centres unmarked) [Compound 2]	93.2 ± 7.2 µM	24.2 ± 0.3 µM	11.1 ± 0.8 µM										
C[C@@H]1CC[C@]2(C(=O)O)CC[C@]3(C)C(=CCC4[C@@]5(C)CCC(=O)C(C)(C)C5CC[C@]43C)C2[C@H]1C (some centres unmarked) [Compound 3]	> 100 µM	34.9 ± 1.5 µM	10.2 ± 0.5 µM										
C[C@H]1[C@H](C)CC[C@]2(C(=O)O)CC[C@]3(C)C(=CC[C@@H]4[C@@]5(C)CC[C@H](O)C(C)(C)[C@@H]5CC[C@]43C)[C@H]12 [Compound 1, Ursolic acid]	17.7 ± 3.3 µM	40 ± 2.7 µM	15.3 µM	15.2 ± 0.3 µM									
COC(=O)[C@]12CC[C@@H](C)[C@H](C)C1C1=CCC3[C@@]4(C)CC[C@H](OC)C(C)(C)C4CC[C@@]3(C)[C@]1(C)CC2 (some centres unmarked) [Compound 5]	> 100 µM	22.7 ± 1.4 µM	6.9 ± 1.5 µM		depolarize the mitochondrial membrane potential	49.0%	induced chromatin condensation	did not stain	increased	dose-dependent cysticidal effect	higher than the origin compound 1	86 µM	did not affect the morphology
[H]/N=C(\N/C(=N/[H])NCCCCCCNC(=N)NC(=N)Nc1ccc(Cl)cc1)Nc1ccc(Cl)cc1 [Chlorhexidine, reference compound]	7.4 ± 0.39 µM		3.73 ± 0.98 µM										
COC(=O)[C@]12CC[C@@H](C)[C@H](C)C1C1=CCC3[C@@]4(C)CC[C@H](OC(=O)c5ccccc5)C(C)(C)C4CC[C@@]3(C)[C@]1(C)CC2 (some centres unmarked) [Compound 8]	> 100 µM	33.5 ± 2.1 µM	11.5 ± 0.8 µM										
COC(=O)[C@]12CC[C@@H](C)[C@H](C)C1C1=CCC3[C@@]4(C)CC[C@H](OC(C)=O)C(C)(C)C4CC[C@@]3(C)[C@]1(C)CC2 (some centres unmarked) [Compound 6]	> 100 µM	37.1 ± 1.3 µM	9.1 ± 1 µM										
COC(=O)[C@]12CC[C@@H](C)[C@H](C)C1C1=CCC3[C@@]4(C)CC[C@H](OC(=O)c5ccc([N+](=O)[O-])cc5)C(C)(C)C4CC[C@@]3(C)[C@]1(C)CC2 (stereo partly drawn) [Compound 7, 3β-(p-nitrobenzoyloxy)-urs-12-en-28-oic acid methyl ester]	> 100 µM	21.4 ± 1.3 µM	6.7 ± 1.8 µM		depolarize the mitochondrial membrane potential	35.0%	induced chromatin condensation	did not stain	increased	dose-dependent cysticidal effect	higher than the origin compound 1	75 µM	
